From patent publication US20260297542A1, “HERBICIDE RESISTANT PLANTS” (SYNGENTA CROP PROTECTION AG, priority 2023, published 2026)
Substitutions are numbered along the chain they refer to.

Columns and labels:
Assay in all cases: E. coli hemG growth inhibition by herbicide, AtPPO1 variant
Assay type in all cases: cell-based
Conditions in all cases: read-out: percentage growth inhibition
AtPPO1 K281N = biological target: T1, AtPPO1 K281N (Arabidopsis thaliana, UniProt P55826, K281N)
T1 construct: expressed in transfected cells; host or cells: E. coli BL21(DE3) hemG (hemG replaced by CmR), pET24a plasmid
T1 sequence (P55826 35-537 K281N): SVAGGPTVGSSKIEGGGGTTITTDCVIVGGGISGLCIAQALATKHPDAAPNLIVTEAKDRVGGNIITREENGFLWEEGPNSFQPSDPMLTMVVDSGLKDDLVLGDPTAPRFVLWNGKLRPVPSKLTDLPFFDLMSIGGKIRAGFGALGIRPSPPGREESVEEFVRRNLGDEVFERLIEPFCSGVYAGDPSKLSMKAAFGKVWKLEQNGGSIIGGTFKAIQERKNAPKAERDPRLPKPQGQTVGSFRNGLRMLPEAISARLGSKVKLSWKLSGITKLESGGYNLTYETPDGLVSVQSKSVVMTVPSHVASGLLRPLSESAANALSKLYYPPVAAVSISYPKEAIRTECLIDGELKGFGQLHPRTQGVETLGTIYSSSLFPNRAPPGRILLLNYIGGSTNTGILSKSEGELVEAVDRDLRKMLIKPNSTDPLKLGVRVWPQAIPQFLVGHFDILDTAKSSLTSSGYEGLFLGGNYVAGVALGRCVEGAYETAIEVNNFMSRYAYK
How it was run: (§1)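 Read-out is OD600 at 24 h post inoculation, converted to percent growth inhibition relative to DMSO. The hemG-deleted BL21(DE3) host relied on the plasmid-borne AtPPO1 variant, induced with 0.1 mM IPTG, with 6.25 ppm herbicide 0 or E or 0.78 ppm herbicide B present at 37° C.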

AtPPO1 V218K = biological target: T2, AtPPO1 V218K (Arabidopsis thaliana, UniProt P55826, V218K)
T2 construct: expressed in transfected cells; host or cells: E. coli BL21(DE3) hemG (hemG replaced by CmR), pET24a plasmid
T2 sequence (P55826 35-537 V218K): T1 sequence (P55826 35-537 K281N) with V184K, N247K
How it was run: as §1

AtPPO1 V198W = biological target: T3, AtPPO1 V198W (Arabidopsis thaliana, UniProt P55826, V198W)
T3 construct: expressed in transfected cells; host or cells: E. coli BL21(DE3) hemG (hemG replaced by CmR), pET24a plasmid
T3 sequence (P55826 35-537 V198W): T1 sequence (P55826 35-537 K281N) with V164W, N247K
How it was run: as §1

AtPPO1 Y361C = biological target: T4, AtPPO1 Y361C (Arabidopsis thaliana, UniProt P55826, Y361C)
T4 construct: expressed in transfected cells; host or cells: E. coli BL21(DE3) hemG, pET24a plasmid
T4 sequence (P55826 35-537 Y361C): T1 sequence (P55826 35-537 K281N) with N247K, Y327C
How it was run: as §1

## C#CCN1C(=O)C(F)(F)Oc2cc(F)c(-n3c(=O)n(C)c(=S)n(C)c3=O)cc21 [Herbicide B, trifludimoxazin]
AtPPO1 K281N
  inhibition at 0.78 ppm: 39%
AtPPO1 V218K
  inhibition at 0.78 ppm: 38%
AtPPO1 V198W
  inhibition at 0.78 ppm: 30%
AtPPO1 Y361C
  inhibition at 0.78 ppm: 36%

## CCOC(=O)[C@]1(C)CC(c2cc(-n3c(=O)n(C)c(=S)n(C)c3=O)c(F)cc2Cl)=NO1 [Herbicide D, ethyl (5S)-3-[2-chloro-5-(3,5-dimethyl-2,6-dioxo-4-thioxo-1,3,5-triazinan-1-yl)-4-fluoro-phenyl]-5-methyl-4H-isoxazole-5-carboxylate]
AtPPO1 K281N
  inhibition at 6.25 ppm: 37%
AtPPO1 V218K
  inhibition at 6.25 ppm: 31%
AtPPO1 V198W
  inhibition at 6.25 ppm: 47%
AtPPO1 Y361C
  inhibition at 6.25 ppm: 15%

## CC(C)N(C)S(=O)(=O)NC(=O)c1cc(-n2c(=O)cc(C(F)(F)F)n(C)c2=O)c(F)cc1Cl [Herbicide E, saflufenacil]
AtPPO1 K281N
  inhibition at 6.25 ppm: 56%
AtPPO1 V218K
  inhibition at 6.25 ppm: 50%
AtPPO1 V198W
  inhibition at 6.25 ppm: 51%
AtPPO1 Y361C
  inhibition at 6.25 ppm: 35%
